# Measurements published in patent US8889684B2, “Azaindolylphenyl sulfonamides as serine/threonine kinase inhibitors” (Boehringer Ingelheim International GmbH, priority 2011, dated 2014).
# Legend:
# B-Raf (V600E)-kinase = B-Raf (V600E)-kinase (Homo sapiens (Human), UniProt P15056, V600E); assay: Kinase test B-Raf (V600E); format: biochemical; settings: 250 μM ATP, biotinylated MEK1 substrate
# Protocol: Kinase test B-Raf (V600E)
# In a dilution series 10 μL/well of test substance solution are placed in a multiwell plate. The dilution series is selected so that generally a range of concentrations of 2 μM to 0.119 nM or 0.017 nM is covered. If necessary the initial concentration of 2 μM is changed to 50 μM, 10 μM, 0.4 μM or 0.2857 μM and further dilution is carried out accordingly. The final concentration of DMSO is 5%. 10 μL/well of the B-Raf (V600E)-kinase solution are pipetted in (containing 0.5 ng B-Raf (V600E)-kinase, e.g. from Upstate) in 20 mM Tris-HCl pH 7.5, 0.1 mM EDTA, 0.1 mM EGTA, 0.286 mM sodium orthovanadate, 10% glycerol, 1 mg/mL bovine serum albumin, 1 mM dithiothreitol) and the mixture is incubated for 1 h at RT with shaking. The kinase reaction is started by the addition of 20 μL/well ATP solution [final concentration: 250 μM ATP, 30 mM Tris-HCl pH 7.5, 0.02% Brij, 0.2 mM sodium orthovanadate, 10 mM magnesium acetate, 0.1 mM EGTA, phosphatase cocktail (Sigma, #P2850, dilution recommended by the manufacturer)] and 10 μL/well MEK1 solution [containing 50 ng biotinylated MEK1 (prepared from purified MEK1 according to standard procedure, e.g. with EZ-Link Sulpho-NHS-LC-Biotin reagent, Pierce, #21335)] and carried out for 60 min at RT with constant shaking. The reaction is stopped by the addition of 12 μL/well of a 100 mM EDTA solution and incubation is continued for a further 5 min. 55 μL/well of the reaction solution are transferred into a streptavidin-coated plate (e.g. Streptawell HighBond, Roche, #11989685001) and gently shaken for 1 h at RT in order to bind biotinylated MEK1 to the plate. After elimination of the liquid the plate is washed five times with 200 μL/well of 1×PBS and 100 μL/well solution of primary antibody plus europium-labelled secondary antibody [Anti Phospho-MEK (Ser217/221), Cell Signaling, #9121 and Eu—N1 labelled goat-anti-rabbit antibody, Perkin Elmer, #AD0105] is added, the primary antibody is diluted 1:2000 and the secondary antibody is diluted to 0.4-0.5 μg/mL in Delfia Assay Buffer (Perkin Elmer, #1244-111). After 1 h shaking at RT the solution is poured away and washed five times with 200 μL/well Delfia Wash Buffer (Perkin Elmer, #4010-0010/#1244-114). After the addition of 200 μL/well Enhancement Solution (Perkin Elmer, #4001-0010/#1244-105) the mixture is shaken for 10 min at RT and then measured in a Wallac Victor using the program “Delfia Time Resolved Fluorescence (Europium)”. IC50 values are obtained from these dosage-activity curves using a software program (GraphPadPrizm).
# SK-MEL-28 cells = assay: Inhibition of the proliferation of cultivated human melanoma cells (SK-MEL-28, B-RAF V600E mutated); format: cell-based; settings: 72 h incubation, AlamarBlue
# Protocol: Measurement of the Inhibition of the Proliferation of Cultivated Human Melanoma cells (SK-MEL-28, B-RAF^V600E Mutated)
# SK-MEL-28 cells are placed in 96-well flat bottomed dishes in a density of 2500 cells per well in supplemented MEM medium (see above) and incubated overnight in an incubator (at 37° C. and 5% CO2). […] After an incubation period of a further 72 h 20 μL AlamarBlue reagent (Serotec Ltd., #BUF012B) are added to each well and the cells are incubated for a further 3-6 h. The colour change of the AlamarBlue reagent is determined in a fluorescence spectrophotometer (e.g. Gemini, Molecular Devices). EC50 values are calculated using a software program (GraphPadPrizm).
# B-Raf (V600E)-kinase, sequence (P15056 whole entry V600E): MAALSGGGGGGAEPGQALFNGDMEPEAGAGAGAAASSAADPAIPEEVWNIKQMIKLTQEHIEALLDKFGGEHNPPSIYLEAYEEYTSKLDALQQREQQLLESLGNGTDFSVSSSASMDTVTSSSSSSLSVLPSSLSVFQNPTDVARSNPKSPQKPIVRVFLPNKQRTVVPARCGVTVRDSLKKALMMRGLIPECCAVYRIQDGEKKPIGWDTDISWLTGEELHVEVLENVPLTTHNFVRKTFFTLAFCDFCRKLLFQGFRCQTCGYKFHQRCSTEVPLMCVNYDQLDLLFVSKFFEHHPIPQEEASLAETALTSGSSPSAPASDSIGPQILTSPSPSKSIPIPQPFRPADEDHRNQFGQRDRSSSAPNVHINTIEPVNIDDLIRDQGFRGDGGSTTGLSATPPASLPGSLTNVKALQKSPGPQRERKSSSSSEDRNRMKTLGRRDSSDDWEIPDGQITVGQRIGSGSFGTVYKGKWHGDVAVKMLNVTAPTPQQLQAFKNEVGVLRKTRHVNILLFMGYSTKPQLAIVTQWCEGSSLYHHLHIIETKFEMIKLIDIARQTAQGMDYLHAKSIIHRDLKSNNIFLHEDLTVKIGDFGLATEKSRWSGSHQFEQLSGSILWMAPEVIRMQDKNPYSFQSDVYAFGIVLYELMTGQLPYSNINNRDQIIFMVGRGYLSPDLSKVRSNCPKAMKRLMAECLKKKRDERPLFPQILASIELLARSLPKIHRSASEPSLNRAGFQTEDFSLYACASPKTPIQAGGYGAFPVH
SMILES,IC50 (B-Raf (V600E)-kinase),EC50 (SK-MEL-28 cells)
CCCS(=O)(=O)Nc1ccc(F)c(-n2cc(-c3cncc(OC)c3)c3nc(N4CCN(C)CC4)ccc32)c1F [I-3],297 nM,114 nM
CCCS(=O)(=O)Nc1ccc(F)c(-n2cc(-c3cncc(OC)c3)c3nc(N4CCN(CCOC)CC4)ccc32)c1F [I-4],125 nM,63 nM
CCCS(=O)(=O)Nc1ccc(F)c(-n2cc(-c3cncc(OC)c3)c3nc(N(C)C4CCN(C)CC4)cnc32)c1F [I-5],16 nM,41 nM
CCCS(=O)(=O)Nc1ccc(F)c(-n2cc(-c3cncc(OC)c3)c3nc(N4CCN(C)CC4)ncc32)c1F [I-6],1610 nM,121 nM
CCCS(=O)(=O)Nc1ccc(F)c(-n2cc(-c3cncc(OC)c3)c3nc(N(C)C4CCN(C)CC4)ncc32)c1F [I-7],7 nM,40 nM
CCCS(=O)(=O)Nc1ccc(F)c(-n2cc(-c3cncnc3)c3nc(N(C)C4CCN(C)CC4)ncc32)c1F [I-8],4 nM,6 nM
CCCS(=O)(=O)Nc1ccc(F)c(-n2cc(-c3cncnc3)c3nc(N(C)C4CCN(CC)CC4)ncc32)c1F [I-9],16 nM,11 nM
CCCS(=O)(=O)Nc1ccc(F)c(-n2cc(-c3cncnc3)c3nc(N(C)C4CCN(C5CC5)CC4)ncc32)c1F [I-10],29 nM,–
CCCS(=O)(=O)Nc1ccc(F)c(-n2cc(-c3cncnc3)c3nc(N(C)C4CCN(CCOC)CC4)ncc32)c1F [I-11],42 nM,21 nM
CCCS(=O)(=O)Nc1ccc(F)c(-n2cc(-c3cncnc3)c3nc(N(C)C4CCNCC4)ncc32)c1F [I-12],41 nM,60 nM
CCCS(=O)(=O)Nc1ccc(F)c(-n2cc(-c3cncnc3)c3nc(N(C)C4CCN(C(=O)OC(C)(C)C)CC4)ccc32)c1F [I-13],–,86 nM
CCCS(=O)(=O)Nc1ccc(F)c(-n2cc(-c3cncnc3)c3nc(N(C)C4CCNCC4)ccc32)c1F [I-14],–,6 nM
O=S(=O)(CC1CCCO1)Nc1ccc(F)c(-n2cc(-c3cncnc3)c3nc(N4CCNCC4)ccc32)c1F (stereo not drawn) [I-15],–,181 nM
CCN1CCN(c2ccc3c(n2)c(-c2cncnc2)cn3-c2c(F)ccc(NS(=O)(=O)CC3CCCO3)c2F)CC1 (stereo not drawn) [I-16],–,491 nM
CN1CCN(c2ccc3c(n2)c(-c2cncnc2)cn3-c2c(F)ccc(NS(=O)(=O)CC3CCCO3)c2F)CC1 (stereo not drawn) [I-17],–,386 nM
CCN1CCN(c2ccc3c(n2)c(-c2cncnc2)cn3-c2c(F)ccc(NS(=O)(=O)CC3CC3)c2F)CC1 [I-18],–,90 nM
CN(c1ncc2c(n1)c(-c1cncnc1)cn2-c1c(F)ccc(NS(=O)(=O)CC2CC2)c1F)C1CCNCC1 [I-19],–,110 nM
CN1CCN(c2ccc3c(n2)c(-c2cncnc2)cn3-c2c(F)ccc(NS(=O)(=O)CC3CC3)c2F)CC1 [I-20],–,72 nM
CCCS(=O)(=O)Nc1ccc(F)c(-n2cc(-c3cncnc3)c3nc(N4CCN(CC)CC4)ncc32)c1F [I-21],–,89 nM
CN(c1ccc2c(n1)c(-c1cncnc1)cn2-c1c(F)ccc(NS(=O)(=O)C2CC2)c1F)C1CCN(C(=O)OC(C)(C)C)CC1 [I-22],–,112 nM
CCCS(=O)(=O)Nc1ccc(F)c(-n2cc(-c3cncnc3)c3nc(N4CCN(CC)CC4)ccc32)c1F [I-23],–,40 nM
CCCS(=O)(=O)Nc1ccc(F)c(-n2cc(-c3cncnc3)c3nc(N4CCN(C)CC4)ncc32)c1F [I-24],–,68 nM
O=S(=O)(CC1CC1)Nc1ccc(F)c(-n2cc(-c3cncnc3)c3nc(N4CCNCC4)ccc32)c1F [I-25],–,27 nM

SMILES,IC50 (B-Raf (V600E)-kinase),EC50 (SK-MEL-28 cells)
CCCS(=O)(=O)Nc1ccc(F)c(-n2cc(-c3cncnc3)c3nc(N4CCNCC4)ncc32)c1F [I-26],–,73 nM
CCCS(=O)(=O)Nc1ccc(F)c(-n2cc(-c3cncnc3)c3nc(N4CCN(CC5CC5)CC4)ncc32)c1F [I-27],–,54 nM
CN(c1ncc2c(n1)c(-c1cncnc1)cn2-c1c(F)ccc(NS(=O)(=O)CC2CC2)c1F)C1CCN(CC2CC2)CC1 [I-28],–,7 nM
CCCS(=O)(=O)Nc1ccc(F)c(-n2cc(-c3cncnc3)c3nc(N4CCN(C5CC5)CC4)ccc32)c1F [I-29],–,41 nM
CCCS(=O)(=O)Nc1ccc(F)c(-n2cc(-c3cncnc3)c3nc(N(C)C4CCN(C)CC4)ccc32)c1F [I-30],–,2 nM
CCCS(=O)(=O)Nc1ccc(F)c(-n2cc(-c3cncnc3)c3nc(N4CCN(CC5CC5)CC4)ccc32)c1F [I-31],–,31 nM
CN1CCC(N(C)c2ccc3c(n2)c(-c2cncnc2)cn3-c2c(F)ccc(NS(=O)(=O)C3CC3)c2F)CC1 [I-32],–,2 nM
CCCS(=O)(=O)Nc1ccc(F)c(-n2cc(-c3cncnc3)c3nc(N4CCNCC4)ccc32)c1F [I-33],–,14 nM
CCCN1CCC(N(C)c2ccc3c(n2)c(-c2cncnc2)cn3-c2c(F)ccc(NS(=O)(=O)CCC)c2F)CC1 [I-34],–,2 nM
CCCS(=O)(=O)Nc1ccc(F)c(-n2cc(-c3cncnc3)c3nc(N(C)C4CCN(CCOC)CC4)c(F)cc32)c1F [I-35],–,6 nM
CCCS(=O)(=O)Nc1ccc(F)c(-n2cc(-c3cncnc3)c3nc(N(C)C4CCN(CC(C)(C)O)CC4)c(F)cc32)c1F [I-36],–,7 nM
CCCS(=O)(=O)Nc1ccc(F)c(-n2cc(-c3cncnc3)c3nc(N(C)C4CCN(CC5CC5)CC4)ccc32)c1F [I-37],–,2 nM
CCCS(=O)(=O)Nc1ccc(F)c(-n2cc(-c3cncnc3)c3nc(N(C)C4CCN(C5COC5)CC4)ncc32)c1F [I-38],–,5 nM
CN(c1ncc2c(n1)c(-c1cncnc1)cn2-c1c(F)ccc(NS(=O)(=O)c2ccoc2)c1F)C1CCN(CC2CC2)CC1 [I-39],–,0.47 nM
CCCS(=O)(=O)Nc1ccc(F)c(-n2cc(-c3cncnc3)c3nc(N(C)C4CCN(CC)CC4)c(F)cc32)c1F [I-40],–,3 nM
[2H]C([2H])([2H])N(c1ccc2c(n1)c(-c1cncnc1)cn2-c1c(F)ccc(NS(=O)(=O)CCC)c1F)C1CCN(CC)CC1 [I-41],–,1 nM
CCCS(=O)(=O)Nc1ccc(F)c(-n2cc(-c3cncnc3)c3nc(N(C)C4CCN(CC)CC4)ccc32)c1F [I-42],–,0.84 nM
CCCS(=O)(=O)Nc1ccc(F)c(-n2cc(-c3cncnc3)c3nc(N(C)C4CCN(CC5CC5)CC4)ncc32)c1F [I-43],–,5 nM
[2H]C([2H])([2H])N(c1ccc2c(n1)c(-c1cncnc1)cn2-c1c(F)ccc(NS(=O)(=O)CCC)c1F)C1CCN(C([2H])([2H])C([2H])([2H])[2H])CC1 [I-44],–,1 nM
CCCS(=O)(=O)Nc1ccc(F)c(-n2cc(-c3cncnc3)c3nc(N(C)C4CCN(CC(C)(C)O)CC4)ccc32)c1F [I-45],–,5 nM
[2H]C([2H])([2H])C([2H])([2H])N1CCC(N(C)c2ccc3c(n2)c(-c2cncnc2)cn3-c2c(F)ccc(NS(=O)(=O)CCC)c2F)CC1 [I-46],–,3 nM
CCCS(=O)(=O)Nc1ccc(F)c(-n2cc(-c3cncnc3)c3nc(N(C)C4CCN(CC)CC4)ccc32)c1Cl [I-47],–,2 nM
